The source of these data is patent publication US20160022620A1, “ENCAPSULATED COMPOSITION FOR BINDING ALDEHYDES IN THE STOMACH” (BIOHIT OYJ, priority 2013, published 2016).

A short description of the series: Dissolution test for the capsules (USP I method, pH 1.2 HCl buffer). As to conditions: not granulated; in 5 minutes. Format: physicochemical. The method, then: Dissolution tests were carried out on the capsules of Example 1 according to the USP I method (USP 24) (The United States Pharmacopeia 2001). A standard curve was prepared between 0.01 and 0.6 mg/ml ([…], r^2=0.9999). The medium used was 500 ml of pH 1.2 HCl buffer. The rotation rate of the baskets was 100 rpm, and the temperature of the medium was +37° C. (±0.5). Samples were taken at 5-minute intervals for the first half hour and thereafter at 10-minute intervals for the remaining 2 hours. L-cysteine was detected in flow-through cells (10 mm) at a wavelength of 213 nm. The results were calculated by using dissolution software. The system was equipped with a bath and a pump (Sotax AT7 UV Dissolution System, Stax, Allschwil, Switzerland) and a spectrophotometer (PerkinElmer, Lambda 25, PerkinElmer, Inc., Waltham, Mass.), the software used for the test and for calculating the results was WinSotax (Sotax). […] When not granulated, the L-cysteine was dissolved rapidly (100% in 5 minutes).

In the case of `N[C@@H](CS)C(=O)O` [L-cysteine], the L-cysteine dissolved was 100%.
